This is an account of results in patent publication US20060222628A1, “Gallium complexes of 3-hydroxy-4-pyrones to treat infection by intracellular prokaryotes and DNA viruses” (priority 1999, published 2006).

Molecules are shown by their SMILES.

A short description of data set [1]: Stability of the 3:1 complex in aqueous solutions at various pH by ultraviolet spectroscopy. It is filed as physicochemical. The note with it: 1.0×10^−2 M in water, 25° C. Here is the method:
The pH was adjusted by adding either 1N HCl or 1N Na2CO3. The stability of the complex was determined using ultraviolet spectroscopy over the region 200-450 nm at 25° C. Several absorption peaks are observed in this range, including those at about 212-217 nm, 248 nm, 273 nm, 318 nm, and 385 nm. An isobesic point occurs over much of the pH range at about 290 nm. In the very dilute solutions (2.5×10^−6 M), the neutral 3:1 complex appears to be stable from about pH 4.5 to 9.5. For the less dilute solutions (1.0×10^−2 M), the determination was more difficult due to the very high absorbance.

For data set [2] the following is noted: in vivo. From the text: Gallium is absorbed very poorly when orally administered as salts such as the chloride or nitrate (Collery et al. (1989), “Clinical pharmacology of gallium chloride after oral administration in lung cancer patients,” Anticancer Res. 9:353-356; Ho et al. […] J.
The test system of data set [3] is CMV. In words: Clinical evaluation for prevention of CMV disease in HIV patients: CMV. In kind it is in vivo, human. From the text: In this example, prevention of CMV disease rather than its treatment will be studied. Chemo-prevention by antivirals is preferred, rather than with immune stimulating agents such as interferons, because interferons require regular administration by injection. Foscarnet is an antiviral only for injection, but it is studied for comparison with oral antivirals. […] In addition to the methods used in Example 5 for evaluating the HIV disease, some of the methods employed in the following reference are used in the evaluation: Monkemuller et al. (2000), “Esophageal ulcer caused by cytomegalovirus: resolution during combination antiretroviral therapy for acquired immunodeficiency syndrome,” South Med. J. 93(8):8 18-20. Patients are treated once per day with gelatin capsules containing gallium maltolate. The population of patients with CMV (almost universal, seropositive or culture positive patients) and HIV infection are first divided into two subpopulations groups based on CD4+ counts (above 350/mm^3 and below 350/mm^3). The subpopulations are randomly and blindly divided into two groups each randomly subdivided into subgroups for a total of sixteen approximately equal subgroups that receive either 0 (placebo), 250, 500, or 750 mg/day gallium maltolate for about six months. All subgroups receive the identical regimen of non-gallium antiretroviral therapy as described in Example 5 (a HAART regime). The commonly used nucleoside analog for CMV is ganciclovir, with foscavir used in cases where ganciclovir is ineffective, and the combination used to treat refractory CMV retinitis and other conditions. Foscarnet must be infused slowly to avoid adverse reactions. […] Patients are monitored for HIV disease precisely as described in Example 5. Patients are also medically monitored for CMV disease, including testing and examination for medical symptoms of CMV disease, such as CMV retinitis, throughout the study. […]

Data set [4] concerns Herpes Simplex. In words: Clinical evaluation for Herpes Simplex (I or II) infection and recurrences. In kind it is in vivo, human. The procedure:
Patients with Herpes Simplex infection are treated once per day with gelatin capsules containing gallium maltolate. The population of patients is divided into subpopulation with recurrent Herpes Simplex and acute Herpes Simplex infections respectively. These different subpopulations are divided randomly and blindly into two approximately equal groups with four approximately equal subgroups that receive either 0 (placebo), 250, 500, or 750 mg/day gallium maltolate for about six months. The first group of each subpopulation receive the gallium maltolate dose together with 200 mg acyclovir five times per day. The second group of each subpopulation receive the gallium maltolate dose together with 500 mg ganciclovir twice per day. Patients are medically monitored for resolution recurrences of latent Herpes Simplex infection, or medical symptoms of acute Herpes Simplex infection throughout the study, with the monitoring including in situ hybridization of skin lesions for HSV DNA. In addition for the acute Herpes Simplex infected group, blood serum samples are obtained from the patients at days 0, 3, 7, and 10 and are assayed for HSV particle by routine methods and for Herpes Simplex DNA (viral load assay) using PCR.

For data set [5], the system named is HIV infection. Description: Clinical evaluation for treating HIV infection. As to conditions: 250, 500 or 750 mg/day oral about six months, with AZT, ddI and indinavir. It is filed as in vivo, human. The procedure:
Patients with HIV infection are treated once per day with gelatin capsules containing 250 mg gallium maltolate. Patients are divided randomly and blindly into approximately equal groups that receive either 0 (placebo), 250, 500, or 750 mg/day gallium maltolate for about six months, together with 300 mg AZT twice per day, 200 mg ddI twice per day, and 800 mg indinavir every eight hours. Patients are medically monitored for symptoms of HIV infection throughout the study. In addition, blood serum samples are obtained from the patients at days 0, 30, 90, and 180 and are assayed for CD4 T-cell count by routine methods and for HIV-1 RNA (viral load assay) using the Roche […] ultra-assay (Sun et al. (1998), “Ultrasensitive reverse transcription-PCR assay for quantitation of human immunodeficiency virus type 1 RNA in plasma,” J. Clin. Microbiol. 36(10):2964-2969).

Data set [6] deals with Epstein-Barr Virus (EBV). In words: Clinical evaluation for Epstein-Barr virus (EBV) infection. In kind it is in vivo, human. The procedure:
Some of the methods employed in the clinical studies discussed in the following references are used in the evaluation: Schneider et al. (2000), “Regression of Epstein-Barr virus-associated lymphoproliferative disorders in patients with acquired immunodeficiency syndrome during therapy with foscarnet,” Ann. Hematol. 79(4):214-6. Patients with EBV infection are treated once per day with gelatin capsules containing gallium maltolate. The patients are divided randomly and blindly into two approximately equal groups with four approximately equal subgroups that receive either 0 (placebo), 250, 500, or 750 mg/day gallium maltolate for about six months. The first group receive the gallium maltolate dose together with 500 mg ganciclovir twice per day. The second group receive the gallium maltolate dose together with 5500 mg foscarnet, IV infusion over 1.5-2 hr., twice per day. Patients are medically monitored for resolution of EBV infection, with histopathologic examination of hematologic smears to assess characteristic cells an lymphocyte levels. In addition blood serum samples are obtained from the patients at days 1, 3, 7, 10, 14, 17, 21, 24 and 28 and are assayed for EBV particles by routine methods and for EBV DNA (viral load assay) using PCR.

For the compound `Cc1occc(=O)c1[O-].Cc1occc(=O)c1[O-].Cc1occc(=O)c1[O-].[Ga+3]` [gallium maltolate, tris(3-hydroxy-2-methyl-4H-pyran-4-onato)gallium], the “Stability region (pH)” value in data set [1] was “very similar to that of the highly dilute solution, possibly slightly wider”. Also, in data set [2], the “Oral gallium absorption relative to gallium salts” value is reported as “roughly ten times higher than from gallium salts”. The “Efficacy in preventing CMV disease in combination” value in data set [3] (HIV patients on HAART, with foscarnet or ganciclovir) is “effective in combination with either foscarnet or ganciclovir”. For the same compound, the “Prevention of CMV disease with only oral agents” value in data set [3] (gallium plus ganciclovir versus placebo plus ganciclovir) was “adequate and effecting better results than placebo plus ganciclovir”. Further, the “Synergy in preventing CMV disease” value in data set [3] (with foscarnet or ganciclovir) is “synergistic with both”. Besides, the “Efficacy in treating Herpes Simplex infection” value in data set [4] (HIV negative patients, 250-750 mg/day oral with acyclovir or ganciclovir) is recorded as “effective for treating Herpes Simplex infection, including recurrent sores as well as more serious systemic disease”. In addition, in data set [4] (Herpes Simplex), the “Efficacy of combination with acyclovir or ganciclovir versus single agents” value is “more effective than either agent alone”. In addition, the “Synergy with nucleoside analogs” value in data set [4] (Herpes Simplex, MacSynergy II) was “synergy of gallium with both nucleoside analogs is also demonstrated”; in data set [6] (EBV, MacSynergy II), “synergy of gallium with both nucleoside analogs is also demonstrated”. In data set [5], the “Efficacy in treating HIV infection” value is “effective for treating HIV infection”. Besides, the “Efficacy of combination with ganciclovir or foscarnet versus single agents” value in data set [6] (EBV) is “more effective than either agent alone”. Also, the “Efficacy in treating EBV infection” value in data set [6] (HIV negative patients, 250-750 mg/day oral with ganciclovir or foscarnet) was “effective for treating EBV infection, including recurrent sores as well as more serious systemic disease”.
